# Data taken from patent publication US7667052B2 (Eisai R&D Management Co., Ltd., priority 2003, dated 2010).
# Read-outs that look alike come from different tables or passages of the source.
# System: transcription from VEGF promoter
# Assay: VEGF transcription-suppressing activity, VEGF-PLAP reporter in U251/1-8 cell
# Type: cell-based
# Settings: Homo sapiens
# Source text: In order to prepare reporter system reflecting transcription from VEGF promoter, VEGF promoter sequence was cloned, and inserted in secretory alkali phosphatase (PLAP) vector to construct reporter vector.
# In order to obtain the promoter region of human VEGF, VEGF genome was cloned from phage library. PCR primers having the sequences described in Sequence Numbers 1 and 2 were designed based on VEGF cDNA (GenBank accession number: X62568) and a fragment having about 340 bp was obtained by carrying out PCR. Human genome phage library (Human genomic library, Clontech Co.) was screened using this as a probe to obtain pUC18-VEGFA containing about 5.4 kb of VEGF 5′ flanking region. The pUC18-VEGFA was cleaved by KpnI/NheI, VEGF promoter region of about 2.3 kb obtained was inserted in the multi cloning site KpnI/NheI of secretory alkali phosphatase (PLAP) vector (Goto et al, Mol. Pharmacol., 49, 860-873, 1996), and thus, VEGF-PLAP vector was constructed.
# The above-mentioned VEGF-PLAP vector was introduced in the U251 cell cultured in the DULBECCO-modified eagle medium (DMEM; manufactured by SIGMA Co., Ltd.) containing 10% fetal calf serum, and cultured in the presence of 1 mg/ml G418 (Merck Co.) to establish G418 resistant stable clone (U251/1-8 cell).
# It was confirmed that U251/1-8 cell secreted PLAP under low oxygen (2% O2 incubator) in the same manner as in the report (Cell. Mol. Biol. Res. 40, 35-39, 1994) and was a reporter system reflecting the transcription from VEGF promoter. The screening of the compound suppressing VEGF production which was induced by low oxygen stimulation was carried out below using the clone.
# In order to remove the influence of alkaline phosphates in serum, U251/1-8 cell was rinsed twice with the adequate amount of PBS (Phosphate buffered saline), diluted in the DMEM medium containing 10% of serum in which alkaline phosphates was inactivated by the treatment of 60° C. for 20 min., and dispensed in 96-well plates by 4×10^4 cells/180 μl.
# After culturing at 37° C. overnight in a CO2 incubator (5% CO2), 20 μL of the above-mentioned incubation solution containing the test compound diluted with 3-fold succession was added, and then they were incubated in a low oxygen ([…]) incubator for 18 hours. With respect to the PLAP activity in the culture supernatants, 10 μl of the supernatants was added to 50 μl of 0.28 M Na2CO3—NaHCO3 buffer solution (pH 10.0, 8.0 mM MgSO4), and finally 50 μl of alkaline phosphatase substrate (LUMISTEIN, Genomescience Co.) was added. After reacting for one hour, the alkaline phosphatase activity of the PLAP was measured by detecting the chemical luminescence by a micro plate reader (Perkin-Elmer Co.).
# The PLAP activity under usual oxygen was set as 0%, the PLAP activity of cell which was treated under low oxygen was set as 100%, and the concentration suppressing the PLAP activity by 50% was set as the IC50 value of PLAP.
# [1] = U-251, U251/1-8 cell, PLAP activity, low oxygen 18 hours, read-out: IC50 values of VEGF transcription-suppressing activity (range given)
SMILES,IC50 [1],"IC50 (U-251, U251/1-8 cell, PLAP activity, low oxygen 18 hours, read-out: VEGF transcription suppressing activity (IC50: nM))","IC50 (U-251, 18 h, read-out: IC50 values of VEGF transcription-suppressing activity (range given))"
CCC(O)C(C)C1OC1CC(C)/C=C/C=C(\C)C1OC(=O)CC(O)/C=C/C(C)(O)C(OC(C)=O)/C=C/C1C (centres unmarked) [11107H],1 to 100 nM,3.1 nM,
CCC(O)C(C)C1OC1C(O)C(C)/C=C/C=C(\C)C1OC(=O)CC(O)CCC(C)(O)C(OC(C)=O)/C=C/C1C (centres unmarked) [11107P],1 to 100 nM,,
"CCC(O)C(C)C(Cl)C(O)CC(C)/C=C/C=C(\C)C1OC(=O)CC(O)CCC(C)(O)C(OC(C)=O)/C=C/C1C (centres unmarked) [B1-1, (8E,12E,14E)-7-Acetoxy-19-chloro-3,6,18,21-tetrahydroxy-6,10,12,16,20-pentamethyltricosa-8,12,14-trien-11-olide]",0.5 to 100 nM,,
"CCC(O)C(C)C(O)C(Cl)CC(C)/C=C/C=C(\C)C1OC(=O)CC(O)CCC(C)(O)C(OC(C)=O)/C=C/C1C (centres unmarked) [B1-2, (8E,12E,14E)-7-acetoxy-18-chloro-3,6,19,21-tetrahydroxy-6,10,12,16,20-pentamethyltricosa-8,12,14-trien-11-olide]",0.5 to 100 nM,,
"CCC(O)C(C)C(O)C(Br)CC(C)/C=C/C=C(\C)C1OC(=O)CC(O)CCC(C)(O)C(OC(C)=O)/C=C/C1C (centres unmarked) [B2-1, (8E,12E,14E)-7-Acetoxy-18-bromo-3,6,19,21-tetrahydroxy-6,10,12,16,20-pentamethyltricosa-8,12,14-trien-11-olide]",0.5 to 100 nM,,
"CCC(O)C(C)C(Br)C(O)CC(C)/C=C/C=C(\C)C1OC(=O)CC(O)CCC(C)(O)C(OC(C)=O)/C=C/C1C (centres unmarked) [B2-2, (8E,12E,14E)-7-acetoxy-19-bromo-3,6,18,21-tetrahydroxy-6,10,12,16,20-pentamethyltricosa-8,12,14-trien-11-olide]",0.5 to 100 nM,,
"CCC(O)C(C)C(I)C(O)CC(C)/C=C/C=C(\C)C1OC(=O)CC(O)CCC(C)(O)C(OC(C)=O)/C=C/C1C (centres unmarked) [B3-1, (8E,12E,14E)-7-Acetoxy-3,6,18,21-tetrahydroxy-19-iodo-6,10,12,16,20-pentamethyltricosa-8,12,14-trien-11-olide]",0.5 to 100 nM,,
"CCC(O)C(C)C(O)C(I)CC(C)/C=C/C=C(\C)C1OC(=O)CC(O)CCC(C)(O)C(OC(C)=O)/C=C/C1C (centres unmarked) [B3-2, (8E,12E,14E)-7-acetoxy-3,6,19,21-tetrahydroxy-18-iodo-6,10,12,16,20-pentamethyltricosa-8,12,14-trien-11-olide]",0.5 to 100 nM,,
"CCC(OC)C(C)C1OC1CC(C)/C=C/C=C(\C)C1OC(=O)CC(O)CCC(C)(O)C(OC(C)=O)/C=C/C1C (centres unmarked) [B8-1, (8E,12E,14E)-7-Acetoxy-3,6-dihydroxy-21-methoxy-6,10,12,16,20-pentamethyl-18,19-epoxytricosa-8,12,14-trien-11-olide]",0.5 to 100 nM,,
"CCC(OC)C(C)C1OC1CC(C)/C=C/C=C(\C)C1OC(=O)CC(O)CCC(C)(OC)C(OC(C)=O)/C=C/C1C (centres unmarked) [B8-2, (8E,12E,14E)-7-acetoxy-3-hydroxy-6,21-dimethoxy-6,10,12,16,20-pentamethyl-18,19-epoxytricosa-8,12,14-trien-11-olide]",0.5 to 100 nM,,
"CCC(O)C(C)C1OC1CC(C)/C=C/C=C(\C)C1OC(=O)CC(OC)CCC(C)(O)C(OC(C)=O)/C=C/C1C (centres unmarked) [B8-4, (8E,12E,14E)-7-acetoxy-6,21-dihydroxy-3-methoxy-6,10,12,16,20-pentamethyl-18,19-epoxytricosa-8,12,14-trien-11-olide]",0.5 to 100 nM,,
"CCC(O)C(C)C1OC1CC(C)/C=C/C=C(\C)C1OC(=O)CC(O)CCC(C)(OC)C(OC(C)=O)/C=C/C1C (centres unmarked) [B8-5, (8E,12E,14E)-7-acetoxy-3,21-dihydroxy-6-methoxy-6,10,12,16,20-pentamethyl-18,19-epoxytricosa-8,12,14-trien-11-olide]",0.5 to 100 nM,,
"CCC(OC)C(C)C1OC1C(O)C(C)/C=C/C=C(\C)C1OC(=O)CC(O)CCC(C)(O)C(OC(C)=O)/C=C/C1C (centres unmarked) [B9, (8E,12E,14E)-7-Acetoxy-3,6,17-trihydroxy-21-methoxy-6,10,12,16,20-pentamethyl-18,19-epoxytricosa-8,12,14-trien-11-olide]",,,0.5 to 100 nM
